# Like-named read-outs stand apart in the source and are kept apart here.
# Legend:
# FGFR3 = target: T1, FGFR3 (Homo sapiens, UniProt P22607); experiment: FGFR3 Biochemical Caliper Assay (KinEASE-TK kit); settings: ratio FGFR3/FGFR2 of the biochemical assay
# T1 construct: purchased Carna 08-135
# Procedure: (§1) Compounds of the present invention were tested in a FGFR1, FGFR2, and FGFR3 Biochemical Caliper Assay. Enzyme activity was monitored using KinEASE-TK kit (CisBio, Cat.No. 62TK0PEC) according to manufacturer's instructions. […] Final enzyme concentration was 0.2 nM for FGFR1 and FGFR3, 0.07 nM for FGFR2. Compounds were prepared in 10 mM DMSO and serially diluted into 10 concentrations by 3-fold dilution. Prior to the initiation of the reaction by adding TK-substrate/ATP mixture, the compounds were incubated with protein for 10 min at RT. […] Plates were quenched by adding TK-antibody-Cryptate and Sa-XL665 mixture. After 60 min in the stop solution, read the signal on microplate reader (Molecular Devices, i3x), excitation of 320 nm and emission of 615 nm and 665 nm with a […]. IC50 values were calculated using Prism 7 (GraphPad).
# FGFR1 = target: T2, FGFR1 (Homo sapiens, UniProt P11362); experiment: FGFR1 Biochemical Caliper Assay (KinEASE-TK kit); settings: ratio FGFR1/FGFR2 of the biochemical assay
# T2 construct: purchased Carna 08-133
# Procedure: as §1
# FGFR2 = target: T3, FGFR2 (Homo sapiens, UniProt P21802); experiment: FGFR2 Biochemical Caliper Assay (KinEASE-TK kit); settings: 0.07 nM FGFR2; compound incubated with protein 10 min, reaction 45 min at RT; read-out: FGFR2 Cliper IC50
# T3 construct: purchased Carna 08-134
# Procedure: Compounds of the present invention were tested in a FGFR1, FGFR2, and FGFR3 Biochemical Caliper Assay.
# as §1, with “Enzyme” for “Compounds of the present invention were tested in a FGFR1, FGFR2, and FGFR3 Biochemical Caliper Assay. Enzyme”
# SNU16 cells = experiment: SNU16 Cancer Cell Line Proliferation Assay (CellTiter-Glo); assay type: cell-based
# Procedure: Compounds of the present invention were also tested in a SNU16 Cancer Cell Line Proliferation Assay.
# SNU16 cells were plated in 96-well clear bottom/white plate(Costar, Cat.No. 3610) at 5000 cells/well in 100 μl medium. Test compounds were prepared in a 10 mM DMSO stock solution and serially diluted into 9 concentrations by 3-fold dilution. 0.5 μl of each concentration of compound was added into the cell culture plates and DMSO as a control. The plates were incubated for 72 h at 37° C. and 5% CO2 incubator. 50 μl CellTiter-Glo reagent (Promega, G7572) was added into each well and then the plates were shaken gently for 10 min at room temperature. Luminescence was read on microplate reader (Molecular Devices, i3x), IC50 values were calculated using Prism 7 (GraphPad).
# T1 sequence (P22607 23-806): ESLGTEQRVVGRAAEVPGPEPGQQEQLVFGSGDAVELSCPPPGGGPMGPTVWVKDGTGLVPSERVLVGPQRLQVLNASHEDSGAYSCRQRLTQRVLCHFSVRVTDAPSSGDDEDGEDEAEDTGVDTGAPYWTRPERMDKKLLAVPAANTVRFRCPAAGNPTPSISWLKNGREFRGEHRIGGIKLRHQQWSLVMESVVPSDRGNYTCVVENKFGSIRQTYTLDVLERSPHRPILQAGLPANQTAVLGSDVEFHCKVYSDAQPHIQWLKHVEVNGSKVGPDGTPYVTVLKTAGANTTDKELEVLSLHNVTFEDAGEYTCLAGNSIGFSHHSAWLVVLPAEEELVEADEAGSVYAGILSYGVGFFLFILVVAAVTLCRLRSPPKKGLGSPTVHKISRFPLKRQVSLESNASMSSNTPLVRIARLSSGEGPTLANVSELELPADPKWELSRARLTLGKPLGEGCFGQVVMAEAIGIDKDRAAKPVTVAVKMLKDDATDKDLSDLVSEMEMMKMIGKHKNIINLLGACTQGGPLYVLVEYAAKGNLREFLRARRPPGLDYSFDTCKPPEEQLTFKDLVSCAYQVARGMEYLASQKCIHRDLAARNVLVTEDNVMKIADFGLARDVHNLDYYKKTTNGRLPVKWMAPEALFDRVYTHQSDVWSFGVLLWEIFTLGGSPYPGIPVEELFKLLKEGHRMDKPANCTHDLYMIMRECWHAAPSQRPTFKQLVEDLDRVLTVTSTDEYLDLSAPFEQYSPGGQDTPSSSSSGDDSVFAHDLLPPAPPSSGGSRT
# T3 sequence (P21802 22-821): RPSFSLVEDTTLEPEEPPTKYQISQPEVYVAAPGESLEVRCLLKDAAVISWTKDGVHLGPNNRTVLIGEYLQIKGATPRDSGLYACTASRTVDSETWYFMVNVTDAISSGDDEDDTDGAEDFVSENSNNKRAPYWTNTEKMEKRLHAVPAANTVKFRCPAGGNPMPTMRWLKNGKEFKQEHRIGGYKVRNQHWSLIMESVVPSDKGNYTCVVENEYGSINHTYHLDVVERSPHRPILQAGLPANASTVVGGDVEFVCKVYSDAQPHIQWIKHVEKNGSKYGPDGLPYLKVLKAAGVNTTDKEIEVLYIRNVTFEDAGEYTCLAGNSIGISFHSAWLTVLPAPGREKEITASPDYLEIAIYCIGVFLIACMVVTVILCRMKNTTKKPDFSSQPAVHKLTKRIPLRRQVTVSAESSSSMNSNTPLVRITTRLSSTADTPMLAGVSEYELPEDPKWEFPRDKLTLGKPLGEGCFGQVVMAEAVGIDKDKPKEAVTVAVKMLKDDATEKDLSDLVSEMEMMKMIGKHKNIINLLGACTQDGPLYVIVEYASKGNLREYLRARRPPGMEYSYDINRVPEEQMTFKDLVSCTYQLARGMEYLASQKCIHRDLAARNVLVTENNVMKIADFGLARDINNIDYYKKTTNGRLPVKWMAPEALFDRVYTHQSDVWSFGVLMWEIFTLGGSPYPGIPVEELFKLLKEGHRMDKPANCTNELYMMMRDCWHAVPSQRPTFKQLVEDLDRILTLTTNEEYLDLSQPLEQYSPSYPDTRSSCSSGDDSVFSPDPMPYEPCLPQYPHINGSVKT
# T2 sequence (P11362 22-822): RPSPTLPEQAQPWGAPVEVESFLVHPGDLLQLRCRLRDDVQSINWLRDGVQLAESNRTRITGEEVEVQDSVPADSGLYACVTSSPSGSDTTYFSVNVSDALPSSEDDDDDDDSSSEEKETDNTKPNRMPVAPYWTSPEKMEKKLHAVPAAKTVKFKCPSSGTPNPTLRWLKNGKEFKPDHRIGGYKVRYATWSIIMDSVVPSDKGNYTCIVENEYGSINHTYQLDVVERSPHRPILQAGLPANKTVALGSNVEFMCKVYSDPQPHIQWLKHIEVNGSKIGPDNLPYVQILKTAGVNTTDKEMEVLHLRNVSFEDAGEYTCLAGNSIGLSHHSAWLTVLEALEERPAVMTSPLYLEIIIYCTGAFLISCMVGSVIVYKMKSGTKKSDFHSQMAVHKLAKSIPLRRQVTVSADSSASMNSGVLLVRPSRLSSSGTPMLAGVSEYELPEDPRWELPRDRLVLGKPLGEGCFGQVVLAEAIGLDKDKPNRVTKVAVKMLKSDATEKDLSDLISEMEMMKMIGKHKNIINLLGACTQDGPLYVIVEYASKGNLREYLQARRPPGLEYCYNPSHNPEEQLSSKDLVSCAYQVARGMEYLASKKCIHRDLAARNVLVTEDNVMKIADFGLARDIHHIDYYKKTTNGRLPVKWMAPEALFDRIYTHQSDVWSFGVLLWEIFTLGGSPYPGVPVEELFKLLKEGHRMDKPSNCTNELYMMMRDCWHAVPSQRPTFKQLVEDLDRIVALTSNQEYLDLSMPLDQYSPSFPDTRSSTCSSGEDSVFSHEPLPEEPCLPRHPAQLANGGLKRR
compound,measurement,setting,value
"C=CC(=O)Nc1ccc(-c2c(-c3ccc(Oc4nccc(C)n4)c(OC)c3)c3c(N)ncc(C(N)=O)c3n2C)cc1 [Compound 21, 2-(4-acrylamidophenyl)-4-amino-3-(3-methoxy-4-((4-methylpyrimidin-2-yl)oxy)phenyl)-1-methyl-1H-pyrrolo[3,2-c]pyridine-7-carboxamide]",Selectivity FGFR3/FGFR2,FGFR3,A (Selectivity of FGFR3/FGFR2 less than 150 but greater than or equal to 100)
same,Selectivity FGFR1/FGFR2,FGFR1,A+ (Selectivity of FGFR1/FGFR2 greater or equal to 500)
same,IC50,FGFR2,< 5 nM
same,IC50,"SNU16 cells; Homo sapiens, SNU-16, 72 h",> 50 nM
"C=CC(=O)Nc1ccc(-c2[nH]c3c(C#N)cnc(N)c3c2-c2ccc(Oc3nccc(C)n3)c(OC)c2)cc1 [Compound 22, N-(4-(4-amino-7-cyano-3-(3-methoxy-4-((4-methylpyrimidin-2-yl)oxy)phenyl)-1H-pyrrolo[3,2-c]pyridin-2-yl)phenyl)acrylamide]",Selectivity FGFR3/FGFR2,FGFR3,B (Selectivity of FGFR3/FGFR2 less than 100 but greater than or equal to 25)
same,Selectivity FGFR1/FGFR2,FGFR1,A (Selectivity of FGFR1/FGFR2 less than 500 but greater than or equal to 300)
same,IC50,FGFR2,< 5 nM
same,IC50,"SNU16 cells; Homo sapiens, SNU-16, 72 h",≤ 10 nM
"C=CC(=O)Nc1ccc(-c2[nH]c3c(C#N)cnc(N)c3c2-c2ccc(C(=O)NC3CC3)c(OC)c2)cc1 [Compound 23, 4-(2-(4-acrylamidophenyl)-4-amino-7-cyano-1H-pyrrolo[3,2-c]pyridin-3-yl)-N-cyclopropyl-2-methoxybenzamide]",Selectivity FGFR3/FGFR2,FGFR3,A (Selectivity of FGFR3/FGFR2 less than 150 but greater than or equal to 100)
same,Selectivity FGFR1/FGFR2,FGFR1,A+ (Selectivity of FGFR1/FGFR2 greater or equal to 500)
same,IC50,FGFR2,< 5 nM
same,IC50,"SNU16 cells; Homo sapiens, SNU-16, 72 h",≤ 10 nM
"C=CC(=O)Nc1ccc(-c2nn3ncnc(N)c3c2-c2ccc(C(=O)NC3CCC3)c(OC)c2)cc1 [Compound 26, 4-(6-(4-acrylamidophenyl)-4-aminopyrazolo[5,1-f][1,2,4]triazin-5-yl)-N-cyclobutyl-2-methoxybenzamide]",Selectivity FGFR3/FGFR2,FGFR3,B (Selectivity of FGFR3/FGFR2 less than 100 but greater than or equal to 25)
same,Selectivity FGFR1/FGFR2,FGFR1,A (Selectivity of FGFR1/FGFR2 less than 500 but greater than or equal to 300)
same,IC50,FGFR2,< 5 nM
same,IC50,"SNU16 cells; Homo sapiens, SNU-16, 72 h",≤ 10 nM
"C=CC(=O)Nc1ccc(-c2nn3ncnc(N)c3c2-c2ccc(C(=O)NCC(F)(F)F)c(OC)c2)cc1 [Compound 42, 4-(6-(4-acrylamidophenyl)-4-aminopyrazolo[5,1-f] [1,2,4]triazin-5-yl)-2-methoxy-N-(2,2,2-trifluoroethyl)benzamide]",Selectivity FGFR3/FGFR2,FGFR3,A (Selectivity of FGFR3/FGFR2 less than 150 but greater than or equal to 100)
same,Selectivity FGFR1/FGFR2,FGFR1,A (Selectivity of FGFR1/FGFR2 less than 500 but greater than or equal to 300)
same,IC50,FGFR2,< 5 nM
same,IC50,"SNU16 cells; Homo sapiens, SNU-16, 72 h",≤ 10 nM
"C=CC(=O)Nc1ccc(-c2nn3ncnc(N)c3c2-c2ccc(C(=O)NCC3CCC3)c(OC)c2)cc1 [Compound 45, 4-(6-(4-acrylamidophenyl)-4-aminopyrazolo[5,1-f] [1,2,4]triazin-5-yl)-N-(cyclobutylmethyl)-2-methoxybenzamide]",Selectivity FGFR3/FGFR2,FGFR3,B (Selectivity of FGFR3/FGFR2 less than 100 but greater than or equal to 25)
same,Selectivity FGFR1/FGFR2,FGFR1,B (Selectivity of FGFR1/FGFR2 less than 300 but greater than or equal to 200)
same,IC50,FGFR2,< 5 nM
same,IC50,"SNU16 cells; Homo sapiens, SNU-16, 72 h",≤ 10 nM
"C=CC(=O)Nc1ccc(-c2nn3ncnc(N)c3c2-c2ccc(C(=O)NCC3(C#N)CC3)c(OC)c2)cc1 [Compound 47, 4-(6-(4-acrylamidophenyl)-4-aminopyrazolo[5,1-f] [1,2,4]triazin-5-yl)-N-((1-cyanocyclopropyl)methyl)-2-methoxybenzamide]",Selectivity FGFR3/FGFR2,FGFR3,B (Selectivity of FGFR3/FGFR2 less than 100 but greater than or equal to 25)
same,Selectivity FGFR1/FGFR2,FGFR1,B (Selectivity of FGFR1/FGFR2 less than 300 but greater than or equal to 200)
same,IC50,FGFR2,< 5 nM
same,IC50,"SNU16 cells; Homo sapiens, SNU-16, 72 h",≤ 10 nM
"C=C(F)C(=O)Nc1ccc(-c2nn3ncnc(N)c3c2-c2ccc(C(=O)NCC(C)C)cc2)cc1 [Compound 48, 4-(4-amino-6-(4-(2-fluoroacrylamido)phe-nyl)pyrazolo[5,1-f] [1,2,4]triazin-5-yl)-N-isobutylbenzamide]",Selectivity FGFR3/FGFR2,FGFR3,B (Selectivity of FGFR3/FGFR2 less than 100 but greater than or equal to 25)
same,Selectivity FGFR1/FGFR2,FGFR1,A+ (Selectivity of FGFR1/FGFR2 greater or equal to 500)
same,IC50,FGFR2,< 5 nM
same,IC50,"SNU16 cells; 72 h, read-out: Cell SNU-16 IC50",≤ 10 nM
"C=CC(=O)Nc1ccc(-c2nn3ncnc(N)c3c2-c2ccc(C(=O)NC3CCCC3)c(OC)c2)cc1 [Compound 55, 4-(6-(4-acrylamidophenyl)-4-aminopyrazolo[5,1-f] [1,2,4]triazin-5-yl)-N-cyclopentyl-2-methoxybenzamide]",Selectivity FGFR3/FGFR2,FGFR3,A (Selectivity of FGFR3/FGFR2 less than 150 but greater than or equal to 100)
same,Selectivity FGFR1/FGFR2,FGFR1,A+ (Selectivity of FGFR1/FGFR2 greater or equal to 500)
same,IC50,FGFR2,< 5 nM
same,IC50,"SNU16 cells; Homo sapiens, SNU-16, 72 h",≤ 10 nM
"C=CC(=O)Nc1ccc(-c2nn3ncnc(N)c3c2-c2ccc(C(=O)NC3(C#N)CC3)c(OC)c2)cc1 [Compound 268, 4-(6-(4-acrylamidophenyl)-4-aminopyrazolo[5,1-f][1,2,4]triazin-5-yl)-N-(1-cyanocyclopropyl)-2-methoxybenzamide]",Selectivity FGFR3/FGFR2,FGFR3,A+ (Selectivity of FGFR3/FGFR2 greater or equal to 150)
same,Selectivity FGFR1/FGFR2,FGFR1,C (Selectivity of FGFR1/FGFR2 less than 200 but greater than or equal to 100)
same,IC50,FGFR2,5 to 10 nM
"C=C(F)C(=O)Nc1ccc(-c2[nH]c3c(C#N)cnc(N)c3c2-c2ccc(C(=O)NC3CC3(F)F)c(OC)c2)cc1 (stereo not drawn) [Compound 320, 4-(4-amino-7-cyano-2-(4-(2-fluoroacrylamido)phe-nyl)-1H-pyrrolo[3,2-c]pyridin-3-yl)-N-(2,2-difluorocyclopropyl)-2-methoxybenzamide]",Selectivity FGFR3/FGFR2,FGFR3,A (Selectivity of FGFR3/FGFR2 less than 150 but greater than or equal to 100)
same,Selectivity FGFR1/FGFR2,FGFR1,C (Selectivity of FGFR1/FGFR2 less than 200 but greater than or equal to 100)
same,IC50,FGFR2,< 5 nM
"C=CC(=O)Nc1ccc(-c2c(-c3ccc(C(=O)NC4CC4)c(OC)c3)c3c(N)ncc(C#N)c3n2C2CC2)cc1 [Compound 359, 4-(2-(4-acrylamidophenyl)-4-amino-7-cyano-1-cyclopropyl-1H-pyrrolo[3,2-c]pyridin-3-yl)-N-cyclopropyl-2-methoxybenzamide]",Selectivity FGFR3/FGFR2,FGFR3,B (Selectivity of FGFR3/FGFR2 less than 100 but greater than or equal to 25)
same,Selectivity FGFR1/FGFR2,FGFR1,A+ (Selectivity of FGFR1/FGFR2 greater or equal to 500)
same,IC50,FGFR2,> 10 nM
"C=C(F)C(=O)Nc1ccc(-c2nn3ncnc(N)c3c2-c2ccc(C(=O)NCC(C)(F)F)c(OC)c2)cc1 [Compound 362, 4-(4-amino-6-(4-(2-fluoroacrylamido)phe-nyl)pyrazolo[5,1-f][1,2,4]triazin-5-yl)-N-(2,2-difluoropropyl)-2-methoxybenzamide]",Selectivity FGFR3/FGFR2,FGFR3,A (Selectivity of FGFR3/FGFR2 less than 150 but greater than or equal to 100)
same,Selectivity FGFR1/FGFR2,FGFR1,A+ (Selectivity of FGFR1/FGFR2 greater or equal to 500)
same,IC50,FGFR2,> 10 nM
"C=CC(=O)Nc1ccc(-c2nn3ncnc(N)c3c2-c2ccc(Oc3ncc(C)cn3)c(F)c2)cc1 [Compound 376, N-(4-(4-amino-5-(3-fluoro-4-((5-methylpyrimidin-2-yl)oxy)phenyl)pyrazolo [5,1-f][1,2,4]triazin-6-yl)phenyl)acrylamide]",Selectivity FGFR3/FGFR2,FGFR3,A+ (Selectivity of FGFR3/FGFR2 greater or equal to 150)
same,Selectivity FGFR1/FGFR2,FGFR1,A+ (Selectivity of FGFR1/FGFR2 greater or equal to 500)
same,IC50,FGFR2,> 10 nM

# Reference: patent US20240383905A1, “FGFR INHIBITORS AND METHODS OF USE THEREOF” (3H PHARMACEUTICALS CO., LTD., priority 2021, published 2024)
